Entries after “also recorded” stand apart in the source; their conditions may differ. Where two headings read alike, the source gives them in different places. Marks after values point to notes of the source that are not given here.
Experiments:
[1] = Fluorescence emission spectrum and Stokes shift; assay type: physicochemical; conditions: for fluorescence emission intensity / λemis (emission wavelength): excitation at 345 nm, 20 μM; for λemis (emission wavelength): solvent per compound: IM1, IM3, IM4, IM5 CH2Cl2, IM2 DMSO, IM6 CH3OH, IM7 hexane, DAPI H2O; for ΔST (Stokes shift): difference between absorption and emission wavelengths, solvent per compound as in Table 1
Description: The stock solutions were diluted to a concentration of 20 µM, and readings used the excitation wavelength of 345 nm for all compounds. […]

[2] = cited from earlier work
[3] = test system: SNB-19; experiment: MTT cytotoxicity assay, human glioblastoma SNB-19; assay type: cell-based; conditions: for IC50: Homo sapiens, SNB-19, 72 h exposure, MTT, 95% confidence interval in brackets; for SI SNB-19 (selectivity index): ratio IC50 L929 / IC50 SNB-19
Description: (§1) The cytotoxic activity of the naphth[1,2-d]imidazoles IM1–IM7 was assessed through colorimetric MTT assay. The ability of these compounds to inhibit cell growth against human glioblastoma (SNB-19), human colorectal carcinoma (HCT-116), and human promyelocytic leukemia (HL-60) cell lines was evaluated. The IC50 was determined for those compounds, returning a percentage inhibition of cell growth above 75% in at least two tested cell lines. […] Doxorubicin was used as the positive control, and cytotoxic activities were expressed as IC50 for all the naphth[1,2-d]imidazoles in Table 2.
(§2) Brain tumor (SNB-19), human colorectal carcinoma (HCT-116), and human promyelocytic leukemia (HL-60) cells were obtained from the National Cancer Institute (NCI) (Bethesda, MD, USA). The L929 cells (mouse fibroblast L cells NCTC clone 929) were purchased from the American Type Culture Collection (Manassas, VA, USA). The cells were grown on RPMI 1640 medium supplemented with 10% fetal bovine serum and 1% antibiotics (penicillin/streptomycin) at 37 °C with 5% CO2.
(§3) Cytotoxic potential of the naphth[1,2-d]imidazoles IM1–IM7 was assessed after 72 h of exposure to the tumor cell lines of human SNB-19, HCT-116, HL-60, and normal cell line L929. Cells were plated in 96-well plates (0.7 × 10^5 cells/well for SNB-19, 0.3 × 10^6 cells/well for HCT-116, and 0.3 × 10^6 cells/well for HL-60). Compounds were dissolved with DMSO at concentrations in the 0.078–10 μg.mL^−1 range. Doxorubicin (0.001–1.10 μM) was used as the positive control, and negative control groups received the same amount of vehicle (DMSO). The cell viability was determined by the reduction of the yellow dye 3-(4,5-dimethyl-2-thiazol)-2,5-diphenyl-2H-tetrazolium bromide (MTT) to a blue formazan product. At the end of the incubation time (69 h), the plates were centrifuged, and the medium was replaced with fresh medium (200 μL) containing 0.5 mg/mL of MTT. Three hours later, the MTT formazan product was dissolved in DMSO (150 μL), and the absorbance was measured using a multi-plate reader (Spectra Count, Packard, ON, Canada). The drug effect was quantified as the percentage of control absorbance of the reduced dye at 550 nm. All experiments were performed in three independent assays, and the half maximal inhibitory concentration (IC50) and their 95% confidence intervals were achieved by nonlinear regression.

[4] = test system: HCT-116; experiment: MTT cytotoxicity assay, human colorectal carcinoma HCT-116; assay type: cell-based; conditions: for IC50: Homo sapiens, HCT-116, 72 h exposure, MTT, 95% confidence interval in brackets; for SI HCT-116 (selectivity index): ratio IC50 L929 / IC50 HCT-116
Description: as §1, §2, §3

[5] = test system: L929; experiment: MTT cytotoxicity assay, nontumor murine fibroblast L929; assay type: cell-based; conditions: Mus musculus, 72 h exposure
Description: as §1, §2, §3

[6] = test system: HL-60; experiment: MTT cytotoxicity assay, human promyelocytic leukemia HL-60; assay type: cell-based; conditions: for IC50: Homo sapiens, HL-60, 72 h exposure, MTT, 95% confidence interval in brackets; for SI HL-60 (selectivity index): ratio IC50 L929 / IC50 HL-60
Description: as §1, §2, §3

[7] = UV-vis absorption spectra and molar absorptivity coefficient; assay type: physicochemical; conditions: 20 μM
Description: A stock solution in dichloromethane (CH2Cl2) of each compound was prepared at a concentration of 4000 µM. From the stock solution, solutions were prepared at a concentration of 20 µM of each compound in four different solvents: hexane, CH2Cl2, dimethyl sulfoxide (DMSO), and methanol (CH3OH). Then, measurement in the range of 190 to 800 nm was performed, with the wavelengths of maximum absorption (λmax) of the compounds in the different solvents shown in Table S1 and Figure S8.
The molar absorptivity coefficient (εAbs) was determined using an equation applied by Lambert–Beer (εAbs = A/LxC, where A—maximum absorbance; L—the optical path of the cuvette used (1 cm); and C—concentration of the analyzed sample in M).

[8] = parameters: method as in PMID 25995830, PMID 20460521; conditions: drawback limiting clinical applications; cited from earlier work
[9] = solvent per compound: IM1, IM3, IM4, IM5 CH2Cl2, IM2 DMSO, IM6 CH3OH, IM7 hexane

| SMILES | fluorescence emission intensity [1] | λemis (emission wavelength) [1] | λmax ([2]; H2O, ref Farahat et al. (2017) [32]) | λabs ([2]; general characteristic of DAPI stated in text, ref not given) | IC50 [3] | SI SNB-19 (selectivity index) [3] | IC50 [4] | SI HCT-116 (selectivity index) [4] | IC50 [5] | IC50 [6] | SI HL-60 (selectivity index) [6] | ΔST (Stokes shift) [1] | εAbs (molar absorptivity coefficient) [7, 9] | λmax [7, 9] | melting point | εAbs (molar absorptivity coefficient) [7] | cell growth inhibition / cytotoxicity (in words) ([3]; SNB-19, MTT, IC50 not calculated) | cell growth inhibition / cytotoxicity (in words) ([4]; HCT-116, MTT, IC50 not calculated) | cell growth inhibition / cytotoxicity (in words) ([6]; HL-60, MTT, IC50 not calculated) | water solubility [8] |
| --- | --- | --- | --- | --- | --- | --- | --- | --- | --- | --- | --- | --- | --- | --- | --- | --- | --- | --- | --- | --- |
| N=C(N)c1ccc(-c2cc3ccc(C(=N)N)cc3[nH]2)cc1 [DAPI, 4′,6-diamidino-2-phenylindole, reference compound] | 1.13 × 10^5 au | 452 nm | 343 ^d nm | 340 nm | – | – | – | – | – | – | – | – | – | – | – | – | – | – | – | – |
| COc1cccc2c1C(=O)c1c(O)c3c(c(O)c1C2=O)C[C@@](O)(C(=O)CO)C[C@@H]3O[C@H]1C[C@H](N)[C@H](O)[C@H](C)O1 [Doxorubicin, reference compound] | – | – | – | – | 2.21 µM | 1.43 | 0.2 µM | 15.80 | 3.16 µM | 0.04 µM | 79.00 | – | – | – | – | – | – | – | – | – |
| CC1(C)CCc2c(c3ccccc3c3nc[nH]c23)O1 [IM1, 4,5-dihydro-6,6-dimethyl-6H-2-pyran[b-4,3]naphth[1,2-d]imidazole] | 6.90 × 10^4 au | 366 nm | – | – | 46.4 µM | 4.00 | 62.1 µM | 3.00 | 186 µM | 24.2 µM | 7.68 | 50 nm | 0.61 10^4 M^−1cm^−1 | 316 nm | 255 to 259 °C | – | – | – | – | – |
| CC1(C)CCc2c(c3ccccc3c3nc(-c4ccccc4)[nH]c23)O1 [IM2, 4,5-dihydro-6,6-dimethyl-6H-2-(phenyl)-pyran[b-4,3]naphth[1,2-d]imidazole] | 2.49 × 10^6 au | 402 nm | – | – | 27 µM | 3.89 | 21.7 µM | 4.83 | 105 µM | 29.9 µM | 3.50 | 60 nm | 2.43 10^4 M^−1cm^−1 | 342 nm | 278 to 279 °C | 24300 M⁻¹ cm⁻¹ | – | – | – | – |
| CC1(C)CCc2c(c3ccccc3c3nc(-c4cccc5ccccc45)[nH]c23)O1 [IM3, 4,5-dihydro-6,6-dimethyl-6H-2-(naphthalenyl)-pyran[b-4,3]naphth[1,2-d]imidazole] | 1.41 × 10^6 au | 457 nm | – | – | – | – | – | – | – | – | – | 103 nm | 1.57 10^4 M^−1cm^−1 | 354 nm | – | 15700 M⁻¹ cm⁻¹ | low growth inhibition; also recorded: low cytotoxicity | low growth inhibition; also recorded: low cytotoxicity | low growth inhibition; also recorded: low cytotoxicity | – |
| CC1(C)CCc2c(c3ccccc3c3nc(-c4ccc(O)cc4)[nH]c23)O1 [IM4, 4,5-dihydro-6,6-dimethyl-6H-2-(4-hidroxyphenyl)-pyran[b-4,3]naphth[1,2-d]imidazole] | 1.36 × 10^6 au | 393 nm | – | – | 31.9 µM | >11.38 | 23 µM | >15.76 | > 363 µM | 8.71 µM | >41.70 | 49 nm | 1.48 10^4 M^−1cm^−1 | 344 nm | – | 14800 M⁻¹ cm⁻¹ | – | – | – | – |
| CN(C)c1ccc(-c2nc3c([nH]2)c2c(c4ccccc43)OC(C)(C)CC2)cc1 [IM5, 4,5-dihydro-6,6-dimethyl-6H-2-(4-dimethylaminophenyl)-pyran[b-4,3]naphth[1,2-d]imidazole] | 7.04 × 10^5 au | 422 nm | – | – | 21.1 µM | 2.51 | 44.1 µM | 1.20 | 52.8 µM | 12.3 µM | 4.28 | 54 nm | 2.71 10^4 M^−1cm^−1 | 368 nm | 182 to 184 °C | 27100 M⁻¹ cm⁻¹ | – | – | – | – |
| CC1(C)CCc2c(c3ccccc3c3nc(-c4ccc([N+](=O)[O-])cc4)[nH]c23)O1 [IM6, 4,5-dihydro-6,6-dimethyl-6H-2-(4-nitrophenyl)-pyran[b-4,3]naphth[1,2-d]imidazole] | – | 391 nm | – | – | 22.3 µM | 6.81 | 21.1 µM | 7.18 | 152 µM | 13.7 µM | 11.09 | – | 1.85 10^4 M^−1cm^−1 | 411 nm | 259 to 260 °C | – | – | – | – | – |
| CC1(C)CCc2c(c3ccccc3c3nc(-c4ccccc4[N+](=O)[O-])[nH]c23)O1 [IM7, 4,5-dihydro-6,6-dimethyl-6H-2-(2-nitrophenyl)-pyran[b-4,3]naphth[1,2-d]imidazole] | – | 385 nm | – | – | > 67 µM | – | 35.1 µM | – | – | 14.9 µM | – | 48 nm | 1.35 10^4 M^−1cm^−1 | 337 nm | 139 to 141 °C | – | – | – | – | – |
| CC1(C)CCC2=C(O1)c1ccccc1C(=O)C2=O [β-lapachone, β-Lapachone] | – | – | – | – | – | – | – | – | – | – | – | – | – | – | – | – | – | – | – | low |

Reference: PMC10096064, “Naphth[1,2-d]imidazoles Bioactive from β-Lapachone: Fluorescent Probes and Cytotoxic Agents to Cancer Cells” (Molecules, 2023)
